In patent US9708336B2, “Metallo-beta-lactamase inhibitors” (priority 2014, dated 2017):
Like-named read-outs stand apart in the source and are kept apart here.

Tests used:
[1] = molecular target: NDM-1 (Klebsiella pneumoniae, UniProt C7C422); assay: biochemical; assay type: biochemical; conditions: read-out: NDM-1 IC50
[2] = molecular target: IMP-1 (Serratia marcescens, UniProt P52699); assay: biochemical; assay type: biochemical; conditions: read-out: IMP-1 IC50
[3] = molecular target: VIM-1 (Pseudomonas aeruginosa (strain ATCC 15692 / DSM 22644 / CIP 104116 / JCM 14847 / LMG 12228 / 1C / PRS 101 / PAO1), UniProt A0A0F7KYQ8); assay: Enzyme activity: determination of IC50, fluorescence assay with CCF2-FA substrate (VIM-1); assay type: biochemical
[4] = test system: Escherichia coli expressing NDM-1 (CLB30016); assay: Antibiotic potentiation activity: synergistic concentration (MITC95) with imipenem, OD600 growth; assay type: cell-based; conditions: for Escherichia coli expressing NDM-1 (CLB 30016) MITC95: concentration giving 95% inhibition of bacterial growth
Procedure, shortened: (§1)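 Inoculum: saline suspension of overnight colonies, 1:100 into 1.1× CAMHB. Imipenem 4 μg/ml final (alt. 1 μg/ml) + compound; 35 °C, 22–24 h; absorbance read-out.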

[5] = test system: Klebsiella pneumoniae expressing VIM-1 (IHMA599644); assay: as above; assay type: cell-based; conditions: for Klebsiella pneumoniae expressing VIM-1 (IHMA 599644) MITC95: concentration giving 95% inhibition of bacterial growth
Procedure, shortened: as §1

[6] = test system: Serratia marcescens expressing IMP-1 (CL5741); assay: as above; assay type: cell-based; conditions: for Serratia marcescens expressing IMP-1 (CL5741) MITC95: concentration giving 95% inhibition of bacterial growth
Procedure, shortened: as §1

[7] = NDM-1 enzyme, CCF2-FA fluorescence assay
[8] = IMP-1 enzyme, CCF2-FA fluorescence assay
[9] = Escherichia coli expressing NDM-1 (CLB30016), 95% growth inhibition
[10] = Klebsiella pneumoniae expressing VIM-1 (IHMA599644), 95% growth inhibition
[11] = Serratia marcescens expressing IMP-1 (CL5741), 95% growth inhibition
[12] = fluorescence assay with CCF2-FA substrate
[13] = fluorescence assay with CCF2-FA substrate, read-out: VIM-1 IC50
[14] = CLB30016 (NDM-1), 95% inhibition of bacterial growth
[15] = IHMA599644 (VIM-1), 95% inhibition of bacterial growth
[16] = CL5741 (IMP-1), 95% inhibition of bacterial growth
[17] = VIM-1 enzyme, CCF2-FA fluorescence assay, read-out: VIM-1 IC50
[18] = NDM-1 enzyme, CCF2-FA substrate
[19] = IMP-1 enzyme, CCF2-FA substrate
[20] = VIM-1 enzyme, CCF2-FA substrate, read-out: VIM-1 IC50
[21] = (CLB30016, NDM-1), 95% growth inhibition
[22] = Klebsiella pneumoniae IHMA599644 (VIM-1), 95% growth inhibition
[23] = Serratia marcescens CL5741 (IMP-1), 95% growth inhibition

Sequence of NDM-1 (C7C422 whole entry, looked up, species assumed): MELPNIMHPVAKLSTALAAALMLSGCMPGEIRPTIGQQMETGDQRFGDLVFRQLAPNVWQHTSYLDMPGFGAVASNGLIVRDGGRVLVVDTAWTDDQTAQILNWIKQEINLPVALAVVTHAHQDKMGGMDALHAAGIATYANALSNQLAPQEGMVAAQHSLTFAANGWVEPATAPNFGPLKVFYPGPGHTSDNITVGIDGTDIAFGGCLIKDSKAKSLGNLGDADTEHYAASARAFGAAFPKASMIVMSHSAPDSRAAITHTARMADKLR
Sequence of IMP-1 (P52699 whole entry, looked up): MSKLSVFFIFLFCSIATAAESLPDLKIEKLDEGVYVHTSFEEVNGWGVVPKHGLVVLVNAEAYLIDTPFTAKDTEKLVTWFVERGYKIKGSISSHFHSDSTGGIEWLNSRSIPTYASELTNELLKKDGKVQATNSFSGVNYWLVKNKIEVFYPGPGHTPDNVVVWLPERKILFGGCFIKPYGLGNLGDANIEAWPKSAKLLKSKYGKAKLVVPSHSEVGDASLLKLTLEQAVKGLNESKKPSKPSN

## NS(=O)(=O)c1cccc(-c2ccc(CN3CC[C@H](CO)C3)cc2)c1-c1nnn[nH]1 [Example 392, 4′-{[(3S)-3-(hydroxymethyl)pyrrolidin-l-yl]methyl}-2-(1H-tetrazol-5-yl)biphenyl-3-sulfonamide]
[1]; [7]
  IC50: 7.88 nM
[2]; [8]
  IC50: 394 nM
[3]; VIM-1 IC50, VIM-1 enzyme, CCF2-FA fluorescence assay
  IC50: 455 nM
[4]; [9]
  Escherichia coli MITC95: 2.344 µM
[5]; [10]
  Klebsiella pneumoniae MITC95: 75 µM
[6]; [11]
  Serratia marcescens MITC95: 3.125 µM

## NS(=O)(=O)c1c(C(F)(F)F)ccc(-c2ccc(C3CCN(CCC4CCNCC4)CC3)cc2)c1-c1nnn[nH]1 [Example 793, 4′-[1-(2-piperidin-4-ylethyl)piperidin-4-yl]-2-(1H-tetrazol-5-yl)-4-(trifluoromethyl)biphenyl-3-sulfonamide]
[1]; [12]
  IC50: 7 nM
[2]; [12]
  IC50: 1.02 nM
[3]; [13]
  IC50: 4.66 nM
[4]; [14]
  Escherichia coli MITC95: 1.563 µM
[5]; [15]
  Klebsiella pneumoniae MITC95: 25 µM
[6]; [16]
  Serratia marcescens MITC95: 3.125 µM

## NS(=O)(=O)c1c(CC[C@H]2CC[C@H](N)CC2)ccc(-c2ccc(C3CCNCC3)cc2)c1-c1nn[nH]n1 [Example 461, 4-(2-((1r,4s)-4-aminocyclohexyl)ethyl)-4′-(piperidin-4-yl)-2-(2H-tetrazol-5-yl)-[1,1′-biphenyl]-3-sulfonamide]
[1]; [7]
  IC50: 1.92 nM
[2]; [8]
  IC50: 4.07 nM
[3]; [17]
  IC50: 1.67 nM
[4]; [9]
  Escherichia coli MITC95: 1.563 µM
[5]; [10]
  Klebsiella pneumoniae MITC95: 4.688 µM
[6]; [11]
  Serratia marcescens MITC95: 1.563 µM

## NS(=O)(=O)c1c(C(F)(F)F)ccc(-c2cccc3c2ccc[n+]3[O-])c1-c1nn[nH]n1 [Example 514, 5-(3-Sulfamoyl-2-(2H-tetrazol-5-yl)-4-(trifluoromethyl)phenyl)quinoline 1-oxide]
[1]; [18]
  IC50: 1.15 nM
[2]; [19]
  IC50: 6.08 nM
[3]; [20]
  IC50: 0.138 nM
[4]; [21]
  Escherichia coli MITC95: 3.125 µM
[5]; [22]
  Klebsiella pneumoniae MITC95: 9.375 µM
[6]; [23]
  Serratia marcescens MITC95: 1.172 µM

## NC1CCC(c2ccc(-c3ccc(C4CCNCC4)cc3)c(-c3nn[nH]n3)c2S(N)(=O)=O)CC1 (stereo not drawn) [Example 459, 4-(4-aminocyclohexyl)-4′-(piperidin-4-yl)-2-(2H-tetrazol-5-yl)-[1,1′-biphenyl]-3-sulfonamide]
[1]; [7]
  IC50: 1120 nM
[2]; [8]
  IC50: 86.6 nM
[3]; [17]
  IC50: 112 nM
[4]; [9]
  Escherichia coli MITC95: 6.25 µM
[5]; [10]
  Klebsiella pneumoniae MITC95: 3.125 µM
[6]; [11]
  Serratia marcescens MITC95: 1.172 µM

## CN(C)CCC1CCN(c2ccnc(S(N)(=O)=O)c2-c2nnn[nH]2)CC1 [Example 219, 4-{4-[2-(dimethylamino)ethyl]piperidin-1-yl}-3-(1H-tetrazol-5-yl)pyridine-2-sulfonamide]
[1]; [12]
  IC50: 1060 nM
[2]; [12]
  IC50: 10400 nM
[3]; [13]
  IC50: 458 nM
[4]
  Escherichia coli expressing NDM-1 (CLB 30016) MITC95: 4.688 µM
[5]
  Klebsiella pneumoniae expressing VIM-1 (IHMA 599644) MITC95: 12.5 µM
[6]
  Serratia marcescens expressing IMP-1 (CL5741) MITC95: 37.5 µM

## CC(C)c1cccc(S(N)(=O)=O)c1-c1nnn[nH]1 [Example 156, 3-isopropyl-2-(1H-tetrazol-5-yl)benzenesulfonamide]
[1]; [12]
  IC50: 13.1 nM
[2]; [12]
  IC50: 508 nM
[3]; [13]
  IC50: 391 nM
[4]
  Escherichia coli expressing NDM-1 (CLB 30016) MITC95: 0.5859 µM
[5]
  Klebsiella pneumoniae expressing VIM-1 (IHMA 599644) MITC95: 50 µM
[6]
  Serratia marcescens expressing IMP-1 (CL5741) MITC95: 9.375 µM

## NS(=O)(=O)c1cccc(CCC2CCCCC2)c1-c1nnn[nH]1 [Example 164, 3-(2-cyclohexylethyl)-2-(1H-tetrazol-5-yl)benzenesulfonamide]
[1]; [12]
  IC50: 2.93 nM
[2]; [12]
  IC50: 5.5 nM
[3]; [13]
  IC50: 50.6 nM
[4]
  Escherichia coli expressing NDM-1 (CLB 30016) MITC95: 1.563 µM
[5]
  Klebsiella pneumoniae expressing VIM-1 (IHMA 599644) MITC95: 200 µM
[6]
  Serratia marcescens expressing IMP-1 (CL5741) MITC95: 0.3906 µM

## NS(=O)(=O)c1c(C(F)(F)F)ccc(-c2ccc(C3CCN(C[C@H]4CCCN4)CC3)cc2)c1-c1nnn[nH]1 [Example 675, 4′-{1-[(2R)-pyrrolidin-2-ylmethyl]piperidin-4-yl}-2-(1H-tetrazol-5-yl)-4-(trifluoromethyl)biphenyl-3-sulfonamide]
[1]; [18]
  IC50: 4.53 nM
[2]; [19]
  IC50: 1.94 nM
[3]; VIM-1 IC50, VIM-1 enzyme, CCF2-FA substrate
  IC50: 14.7 nM
[4]; [21]
  Escherichia coli MITC95: 4.688 µM
[5]; [22]
  Klebsiella pneumoniae MITC95: 150 µM
[6]; [23]
  Serratia marcescens MITC95: 6.25 µM

## NS(=O)(=O)c1cccc(-c2cccc3scnc23)c1-c1nnn[nH]1 [Example 422, 3-(Benzo[d]thiazol-4-yl)-2-(1H-tetrazol-5-yl)benzenesulfonamide]
[1]; [7]
  IC50: 1.3 nM
[2]; [8]
  IC50: 56 nM
[3]; [17]
  IC50: 22.6 nM
[4]; [9]
  Escherichia coli MITC95: 3.125 µM
[5]; [10]
  Klebsiella pneumoniae MITC95: 100 µM
[6]; [11]
  Serratia marcescens MITC95: 25 µM

## Cc1ccc(Cc2cccc(S(N)(=O)=O)c2-c2nnn[nH]2)cc1 [Example 163, 3-(4-methylbenzyl)-2-(1H-tetrazol-5-yl)benzenesulfonamide]
[1]; [12]
  IC50: 17.7 nM
[2]; [12]
  IC50: 327 nM
[3]; [13]
  IC50: 437 nM
[4]
  Escherichia coli expressing NDM-1 (CLB 30016) MITC95: 3.125 µM
[5]
  Klebsiella pneumoniae expressing VIM-1 (IHMA 599644) MITC95: >200 µM
[6]
  Serratia marcescens expressing IMP-1 (CL5741) MITC95: 12.5 µM

## NCc1ncc(CCc2ccc(C(F)(F)F)c(S(N)(=O)=O)c2-c2nn[nH]n2)cc1N [Example 513, 3-(2-(5-Amino-6-(aminomethyl)pyridin-3-yl)ethyl)-2-(2H-tetrazol-5-yl)-6-(trifluoromethyl)benzenesulfonamide]
[1]; [18]
  IC50: 9.35 nM
[2]; [19]
  IC50: 3.61 nM
[3]; [20]
  IC50: 1.18 nM
[4]; [21]
  Escherichia coli MITC95: 12.5 µM
[5]; [22]
  Klebsiella pneumoniae MITC95: 9.375 µM
[6]; [23]
  Serratia marcescens MITC95: 9.375 µM

## NS(=O)(=O)c1c(CCC(F)(F)F)ccc(-c2ccc(C3CCNCC3)cc2)c1-c1nn[nH]n1 [Example 473, 4′-(piperidin-4-yl)-2-(2H-tetrazol-5-yl)-4-(3,3,3-trifluoropropyl)-[1,1′-biphenyl]-3-sulfonamide]
[1]; [7]
  IC50: 4.47 nM
[2]; [8]
  IC50: 7.3 nM
[3]; [17]
  IC50: 1.42 nM
[4]; [9]
  Escherichia coli MITC95: 4.688 µM
[5]; [10]
  Klebsiella pneumoniae MITC95: 4.688 µM
[6]; [11]
  Serratia marcescens MITC95: 0.5859 µM

## NS(=O)(=O)c1c(C(F)(F)F)ccc([C@H]2CC[C@H](NC3CCNCC3)CC2)c1-c1nnn[nH]1 [Example 698, 3-[4-(piperidin-4-ylamino)cyclohexyl]-2-(1H-tetrazol-5-yl)-6-(trifluoromethyl)benzene sulfonamide]
[1]; [18]
  IC50: 10 nM
[2]; [19]
  IC50: 29.6 nM
[3]; [20]
  IC50: 6.52 nM
[4]; [21]
  Escherichia coli MITC95: 0.7813 µM
[5]; [22]
  Klebsiella pneumoniae MITC95: 3.125 µM
[6]; [23]
  Serratia marcescens MITC95: 3.125 µM

## CN1CCC(NCc2ccc(-c3cccc(S(N)(=O)=O)c3-c3nnn[nH]3)cc2)C1 (stereo not drawn) [Example 332, 4′-(((1-methylpyrrolidin-3-yl)amino)methyl)-2-(1H-tetrazol-5-yl)-[1,1′-biphenyl]-3-sulfonamide]
[1]; [7]
  IC50: 11.5 nM
[2]; [8]
  IC50: 192 nM
[3]; [17]
  IC50: 554 nM
[4]; [9]
  Escherichia coli MITC95: 0.5859 µM
[5]; [10]
  Klebsiella pneumoniae MITC95: 100 µM
[6]; [11]
  Serratia marcescens MITC95: 3.125 µM

## NS(=O)(=O)c1c(C(F)(F)F)ccc(-c2cccc(N3CCC(O)CC3)c2)c1-c1nnn[nH]1 [Example 741, 3′-(4-hydroxypiperidin-1-yl)-2-(1H-tetrazol-5-yl)-4-(trifluoromethyl)biphenyl-3-sulfonamide]
[1]; [18]
  IC50: 4.65 nM
[2]; [19]
  IC50: 6.12 nM
[3]; [20]
  IC50: 2.74 nM
[4]; [21]
  Escherichia coli MITC95: 25 µM
[5]; [22]
  Klebsiella pneumoniae MITC95: >200 µM
[6]; [23]
  Serratia marcescens MITC95: 25 µM

## NS(=O)(=O)c1c(C(F)(F)F)ccc(N2CCC(N3CCNCC3)CC2)c1-c1nnn[nH]1 [Example 780, 3-(4-piperazin-1-yl-1-piperidyl)-2-(1H-tetrazol-5-yl)-6-(trifluoromethyl) benzenesulfonamide]
[1]; [12]
  IC50: 17.7 nM
[2]; [12]
  IC50: 31.7 nM
[3]; [13]
  IC50: 0.274 nM
[4]; [14]
  Escherichia coli MITC95: 1.563 µM
[5]; [15]
  Klebsiella pneumoniae MITC95: 2.344 µM
[6]; [16]
  Serratia marcescens MITC95: 1.563 µM

## NS(=O)(=O)c1c(C(F)(F)F)ccc(N2CCCC(CCCO)C2)c1-c1nnn[nH]1 (stereo not drawn) [Example 769, 3-[3-(3-hydroxypropyl)piperidin-1-yl]-2-(1H-tetrazol-5-yl)-6-(trifluoromethyl) benzenesulfonamide]
[1]; [12]
  IC50: 7.48 nM
[2]; [12]
  IC50: 11.4 nM
[3]; [13]
  IC50: 0.998 nM
[4]; [14]
  Escherichia coli MITC95: 100 µM
[5]; [15]
  Klebsiella pneumoniae MITC95: 50 µM
[6]; [16]
  Serratia marcescens MITC95: 25 µM

## NS(=O)(=O)c1nccc(N2CCC(N3CCCC3)CC2)c1-c1nnn[nH]1 [Example 222, 4-(4-pyrrolidin-1-ylpiperidin-1-yl)-3-(1H-tetrazol-5-yl)pyridine-2-sulfonamide]
[1]; [12]
  IC50: 5150 nM
[2]; [12]
  IC50: 20000 nM
[3]; [13]
  IC50: 794 nM
[4]
  Escherichia coli expressing NDM-1 (CLB 30016) MITC95: 12.5 µM
[5]
  Klebsiella pneumoniae expressing VIM-1 (IHMA 599644) MITC95: 12.5 µM
[6]
  Serratia marcescens expressing IMP-1 (CL5741) MITC95: 75 µM
